From PubChem BioAssay (NCI)
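Grown in 96-well plates, cells were treated for 48 hours with each compound at five concentrations. Insufficient inhibition: endpoint recorded as highest concentration tested. TGI denotes the concentration required for complete inhibition of growth.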

Legend:
Experiment in all cases: growth of human tumour cells (NCI), 48 h
CAKI-1 renal = test system: CAKI-1 renal
HCT-15 colon = test system: HCT-15 colon
HOP-62 NSCLC = test system: HOP-62 NSCLC
IGROV1 ovarian = test system: IGROV1 ovarian
M14 melanoma = test system: M14 melanoma
NCI/ADR-RES ovarian = test system: NCI/ADR-RES ovarian
RXF 393 renal = test system: RXF 393 renal
SW-620 colon = test system: SW-620 colon
T-47D breast = test system: T-47D breast
UO-31 renal = test system: UO-31 renal

SMILES	TGI (CAKI-1 renal) [µM]	TGI (HCT-15 colon) [µM]	TGI (HOP-62 NSCLC) [µM]	TGI (IGROV1 ovarian) [µM]	TGI (M14 melanoma) [µM]	TGI (NCI/ADR-RES ovarian) [µM]	TGI (RXF 393 renal) [µM]	TGI (SW-620 colon) [µM]	TGI (T-47D breast) [µM]	TGI (UO-31 renal) [µM]
CC(=O)OC[C@H]1O[C@@H](O[C@H]2[C@H](OC(C)=O)C=CO[C@@H]2COC(C)=O)C(OC(C)=O)[C@H]2OC(C)(C)O[C@H]21 (stereo not given in full)	> 100	> 100	> 100	> 100	> 100	> 100	> 100	> 100	> 100	> 100
O=C(Nc1sccc1S(=O)(=O)c1ccccc1)c1cccnc1	> 100	> 100	> 100	> 94.2	> 100	> 52.7	> 100	> 100	> 100	> 100
CC1=NOC2(C1)/C(=N/O)CCC/C2=N\O (stereo not given)	> 100	> 100	> 100	> 100	> 100	> 100	> 100	> 100	> 100	> 100
S=C1c2ccccc2NC(=NC2CCCC2)C2CSCN12 (stereo not given)	> 100	> 100	> 100	> 100	> 100	> 100	> 100	> 100	> 100	> 100
Cc1ccc([N+](=O)[O-])cc1S(=O)(=O)Nc1ccc(C2=NN(c3ccc([N+](=O)[O-])cc3[N+](=O)[O-])C(c3ccccc3)C2)cc1 (stereo not given)	> 100	36.8	33	36	51.1	49.4	33.4	> 100	> 100	31.3
CC(=O)Oc1ccc(/C=C/C(=O)O[C@@H](C)[C@H](C)OC(=O)/C=C/c2ccc(OC(C)=O)c(OC(C)=O)c2)cc1OC(C)=O	> 100	33.1	56.3	> 100	58.4	> 100	44.6	35.3	61.2	> 100
C=CC[C@H]1[C@@H](O[Si](C)(C)C(C)(C)C)[C@H](n2ccc(=O)[nH]c2=O)O[C@@H]1CO[Si](C)(C)C(C)(C)C	4.42	3.63	4	6.05	3.23	4.95	3.63	3.39	9.11	3.65
CCCC/C=C1\CCC(CN2CCCCC2)C1=O (stereo not given)	17.8	20.6	49.4	36.7	24.4	> 100	18.1	14.4	> 100	47.7
COc1ccc(N(C(=O)Nc2ccc(Cl)c(Cl)c2)c2ccccc2)cc1	> 10	> 10	> 10	> 10	> 10	> 10	> 10	> 10	> 10	> 10
COc1cccc(N2C(=O)C3c4[nH]c5ccccc5c4C4c5ccccc5CCC4C3C2=O)c1 (stereo not given)	> 10	> 10	6.81	> 10	> 10	> 10	> 10	> 10	> 10	> 10
CC(=O)OC(Cc1cc(C=C(C(F)(F)F)C(F)(F)F)cc(C)n1)(C(F)(F)F)C(F)(F)F	3.45	> 100	3.42	1.58	4.08	> 100	2.4	5.67	6.88	3.08
Cc1cc2c(cc1Cl)Sc1nnc(Nc3ccccc3)n1S2(=O)=O	53.8	28.9	15	54.6	60.1	23.4	24.2	> 100	57.3	41.8
C=CC(=O)N1C/C(=C\c2ccc(N(C)C)cc2)C(=O)/C(=C/c2ccc(N(C)C)cc2)C1	> 100	> 100	> 100	> 100	> 100	> 100	> 100	> 100	> 100	> 100
c1ccc(CNc2c3c(nc4ccccc24)CCC3)cc1	45.3	68.4	25.6	42.4	27.2	44.2	30.4	28.2	38.7	25
CC(C)/C(Cl)=N/OC(=O)Nc1ccc(F)c(Cl)c1	3.06	4.16	32.8	28.4	10.6	29.3	25.6	3.47	12.7	30.4
O=C(Nc1ccccc1)O/N=C(/CBr)c1ccccc1	31.7	22.2	68.7	36.9	28.4	> 100	48	> 100	32.6	32.4
O=C(Nc1ccccc1F)c1c(O)nc2sccn2c1=O	> 10	> 10	> 10	> 10	> 10	> 10	> 10	> 10	> 10	> 10
Oc1ccc(/C=C\c2nnc(/C=C\c3ccc(O)c(O)c3)s2)cc1O	16.8	16.9	21.8	20.7	26	> 59.2	18.5	13.3	5.37	7.78
